In patent publication US11701372B2, “Inhalation formulations of 1'-cyano substituted carba-nucleoside analogs” (priority 2020, dated 2023):
Where two headings read alike, the source gives them in different places. Marks after values point to notes of the source that are not given here.

Legend:
[1] = Characterisation of milled suspension formulations (osmolarity, pH, particle size); type: physicochemical; settings: 0.5% w/v poloxamer 237, 0.9% sodium chloride
Description: The vial capped, vortexed briefly, and then placed in a Bertin Instruments Precellys® Evolution blender. The blender was used to wet mill the mixture for 15×30 second cycles, with 120 second rest time between cycles. The blender speed was 7,200 rpm and cooling set was set to high. After milling, the milled suspension was separated from the beads by withdrawing the suspension from the vial using a syringe with a 1.5'' 25G needle. The recovered volume of the concentrated suspension was noted as 2.97 mL, and the concentration was measured as 25.8 mg/mL. The suspension was diluted with 2.14 mL of vehicle to obtain the target concentration of 15 mg/mL. […] The chiller set to 30° F., pump set to 100 rpm, and agitator set to 3000 rpm. The pump was primed with 100 mL of vehicle, and the first 80 mL of flowthough from priming was sent to waste. The mill was then set to recirculate as feeding continued with the addition of 150 mL of pre-mill formulation intermediate, followed by 25 mL of vehicle rinse. The formulation was allowed to recirculate though the mill for 1 hr, after which the flow was directed to a collection bottle. After 100 mL of concentrated suspension formulation was collected in the bottle, a vehicle chase was fed into the mill. Collection was stopped when the recovered volume reached 250 mL.

SARS-CoV2-Nano viruses = assay: SARS-CoV-2 antiviral screening (A549-hACE2 cells, Nano luciferase); type: cell-based; settings: Severe acute respiratory syndrome coronavirus 2, 48 h
[2] = type: physicochemical
Description: For each conditions, the physical stability was measured as % LS and compared to % LS at T=0.

[3] = type: physicochemical; remark: listed apart in the source
Description: Samples for freeze-thaw cycling were also prepared and tested. For each condition, the physical stability was measured as % LS (label strength) and compared to % LS at T=0. […] The 7.5% SBECD formulation is also stable to freeze/thaw cycling (three cycles performed).

[4] = Nebulizer performance (PARI LC Sprint jet nebulizer); type: physicochemical; settings: 5 mg/mL Formula Ia, 15% w/v SBECD, 8 mL charge; collected aerosol and residual solution
[5] = both, monkey, in vivo, 0.168 mg/kg
Description: (§1) The average deposited dose was calculated at 0.168 mg/kg and 0.536 mg/kg, respectively. Plasma, peripheral blood mononuclear cells (PBMCs), trachea, bronchi, lung lobe, liver, kidney, nasal mucosa and nasopharyngeal mucosa samples were collected in this study.

[6] = Plasma PK of Formula Ia and metabolites after inhalation in African Green Monkeys; settings: both, monkey, in vivo
Description: as §1

[7] = PBMC concentrations of metabolites after inhalation in African Green Monkeys; settings: both, monkey, in vivo
Description: as §1

in vivo = settings: both, monkey, 0.168 mg/kg
Description: as §1

[8] = Respiratory tissue concentrations after inhalation in African Green Monkeys; settings: 24 hours
Description: as §1

[9] = 15 mg/mL in water with 0.1% w/v HPMC
[10] = 7.5% SBECD w/v, 2-8° C., 24 h timepoint
[11] = 7.5% SBECD w/v, RT, 24 h timepoint
[12] = inhaled or intranasal, 0.168 mg/kg
[13] = inhaled or intranasal, 0.536 mg/kg

SMILES: CCC(CC)COC(=O)[C@H](C)N[P@](=O)(OC[C@H]1O[C@@](C#N)(c2ccc3c(N)ncnn23)[C@H](O)[C@@H]1O)Oc1ccccc1 [Formula Ia, (S)-2-ethylbutyl 2-(((S)-(((2R,3S,4R,5R)-5-(4-aminopyrrolo[2,1-f][1,2,4]triazin-7-yl)-5-cyano-3,4-dihydroxytetrahydrofuran-2-yl)methoxy)(phenoxy)phosphoryl)amino)propanoate]
- osmolarity [1, 9]: 285 mOsm/kg
- pH [1, 9]: 6.89
- volume mean diameter particle size [1, 9]: 3.65 μm
- particle size by polarized light microscopy ([1]; 100 mg/mL in water with 0.1% w/v HPMC): < 5 μm
- EC50 (SARS-CoV2-Nano viruses): 110 nM
- physical stability [2]: stable
- % LS T0 ([2]; pH 3.8): 99 % LS
- % LS After Stress, Hold ([2]; pH 3.8, 2-8° C. (1 wk)): 99 % LS
- % LS After Stress, Hold After Seeding ([2]; pH 3.8, 2-8° C. (1 wk)): 88 % LS
- % LS After Stress, Hold ([2]; pH 3.8, 2-8° C. (48 h)): 99 % LS
- % LS After Stress, Hold After Seeding ([2]; pH 3.8, 2-8° C. (48 h)): 99 % LS
- % LS After Stress, Hold ([2]; pH 3.8, 2-8° C. (72 h)): 99 % LS
- % LS After Stress, Hold After Seeding ([2]; pH 3.8, 2-8° C. (72 h)): 99 % LS
- % LS After Stress, Hold ([2]; pH 3.8, 2-8° C., 24 h): 100 % LS
- % LS After Stress, Hold After Seeding ([2]; pH 3.8, 2-8° C., 24 h): 100 % LS
- % LS After Stress, Freeze-thaw (3X) ([2]; pH 3.8, (+) seed): 99 % LS
- % LS After Stress, Freeze-thaw (3X) ([2]; pH 3.8, (−) seed): 99 % LS
- % LS After Stress, Hold ([2]; pH 3.8, RT (1 wk)): 99 % LS
- % LS After Stress, Hold After Seeding ([2]; pH 3.8, RT (1 wk)): 65 % LS
- % LS After Stress, Hold ([2]; pH 3.8, RT (24 h)): 100 % LS
- % LS After Stress, Hold After Seeding ([2]; pH 3.8, RT (24 h)): 99 % LS
- % LS After Stress, Hold ([2]; pH 3.8, RT (48 h)): 99 % LS
- % LS After Stress, Hold After Seeding ([2]; pH 3.8, RT (48 h)): 99 % LS
- % LS After Stress, Hold ([2]; pH 3.8, RT (72 h)): 99 % LS
- % LS After Stress, Hold After Seeding ([2]; pH 3.8, RT (72 h)): 99 % LS
- % LS T0 ([2]; pH 4.0): 100 % LS
- % LS After Stress, Hold ([2]; pH 4.0, 2-8° C. (1 wk)): 99 % LS
- % LS After Stress, Hold ([2]; pH 4.0, 2-8° C. (48 h)): 99 % LS
- % LS After Stress, Hold After Seeding ([2]; pH 4.0, 2-8° C. (48 h)): 79 % LS
- % LS After Stress, Hold ([2]; pH 4.0, 2-8° C. (72 h)): 100 % LS
- % LS After Stress, Hold After Seeding ([2]; pH 4.0, 2-8° C. (72 h)): 67 % LS
- % LS After Stress, Hold ([2]; pH 4.0, 2-8° C., 24 h): 100 % LS
- % LS After Stress, Hold After Seeding ([2]; pH 4.0, 2-8° C., 24 h): 96 % LS
- % LS After Stress, Freeze-thaw (3X) ([2]; pH 4.0, (+) seed): 99 % LS
- % LS After Stress, Freeze-thaw (3X) ([2]; pH 4.0, (−) seed): 99 % LS
- % LS After Stress, Hold ([2]; pH 4.0, RT (1 wk)): 98 % LS
- % LS After Stress, Hold ([2]; pH 4.0, RT (24 h)): 100 % LS
- % LS After Stress, Hold After Seeding ([2]; pH 4.0, RT (24 h)): 69 % LS
- % LS After Stress, Hold ([2]; pH 4.0, RT (48 h)): 99 % LS
- % LS After Stress, Hold After Seeding ([2]; pH 4.0, RT (48 h)): 60 % LS
- % LS After Stress, Hold ([2]; pH 4.0, RT (72 h)): 100 % LS
- % LS After Stress, Hold After Seeding ([2]; pH 4.0, RT (72 h)): 58 % LS
- % LS (Initial) ([3]; 5% SBECD w/v): 101 % LS
- % LS After Stress, Hold ([3]; 5% SBECD w/v, 2-8° C. (48 h)): 101 % LS
- % LS After Stress, Hold After Seeding ([3]; 5% SBECD w/v, 2-8° C. (48 h)): 80 % LS
- % LS After Stress, Hold ([3]; 5% SBECD w/v, RT (48 h)): 101 % LS
- % LS After Stress, Hold After Seeding ([3]; 5% SBECD w/v, RT (48 h)): 68 % LS
- % LS After Stress, Freeze-thaw (3x) ([3]; 5% SBECD w/v, after seeding): 69 % LS
- % LS After Stress, Freeze-thaw (3x) ([3]; 5% SBECD w/v, without seeding): 101 % LS
- % LS (Initial) ([3]; 7.5% SBECD w/v): 101 % LS
- % LS After Stress, Hold [3, 10]: 104* % LS
- % LS After Stress, Hold After Seeding [3, 10]: 103* % LS
- % LS After Stress, Hold [3, 11]: 103* % LS
- % LS After Stress, Hold After Seeding [3, 11]: 102* % LS
- % LS After Stress, Freeze-thaw (3x) ([3]; 7.5% SBECD w/v, after seeding): 97 % LS
- % LS After Stress, Freeze-thaw (3x) ([3]; 7.5% SBECD w/v, without seeding): 99 % LS
- % LS (Initial) ([3]; 10% SBECD w/v): 101 % LS
- % LS After Stress, Hold ([3]; 10% SBECD w/v, 2-8° C. (48 h)): 101 % LS
- % LS After Stress, Hold After Seeding ([3]; 10% SBECD w/v, 2-8° C. (48 h)): 99 % LS
- % LS After Stress, Hold ([3]; 10% SBECD w/v, RT (48 h)): 101 % LS
- % LS After Stress, Hold After Seeding ([3]; 10% SBECD w/v, RT (48 h)): 98 % LS
- % LS After Stress, Freeze-thaw (3x) ([3]; 10% SBECD w/v, after seeding): 98 % LS
- % LS After Stress, Freeze-thaw (3x) ([3]; 10% SBECD w/v, without seeding): 100 % LS
- % LS (Initial) ([3]; 20% SBECD w/v): 102 % LS
- % LS After Stress, Hold ([3]; 20% SBECD w/v, 2-8° C. (48 h)): 101 % LS
- % LS After Stress, Hold After Seeding ([3]; 20% SBECD w/v, 2-8° C. (48 h)): 101 % LS
- % LS After Stress, Hold ([3]; 20% SBECD w/v, RT (48 h)): 101 % LS
- % LS After Stress, Hold After Seeding ([3]; 20% SBECD w/v, RT (48 h)): 101 % LS
- % LS After Stress, Freeze-thaw (3x) ([3]; 20% SBECD w/v, after seeding): 100 % LS
- % LS After Stress, Freeze-thaw (3x) ([3]; 20% SBECD w/v, without seeding): 100 % LS
- change in % peak area for Formula Ia or its identified impurities after nebulization [4]: No significant change

SMILES: N#C[C@@]1(c2ccc3c(N)ncnn23)O[C@H](CO)[C@@H](O)[C@H]1O [Compound A]
- mean estimated terminal elimination half-life [5]: 7.58 h
- concentration at 0.25 h ([6]; 0.168 mg/kg): 3 ± 1 nM
- concentration at 1 h ([6]; 0.168 mg/kg): 31 ± 7 nM
- concentration at 2 h ([6]; 0.168 mg/kg): 25 ± 5 nM
- concentration at 24 h ([6]; 0.168 mg/kg): 2 nM
- concentration at 0.75 h ([6]; 0.536 mg/kg): 29 ± 8 nM
- concentration at 1.52 h ([6]; 0.536 mg/kg): 58 ± 3 nM
- concentration at 2 h ([6]; 0.536 mg/kg): 71 ± 11 nM
- concentration at 4 h ([6]; 0.536 mg/kg): 43 ± 9 nM
- concentration at 8 h ([6]; 0.536 mg/kg): 22 ± 5 nM
- concentration at 24 h ([6]; 0.536 mg/kg): 5 ± 1 nM
- AUC(0-t) [6, 12]: 0.191 ± 0.03 µM·h
- Cmax [6, 12]: 31 ± 7 nM
- half-life [6, 12]: 7.58 ± 1.03 h
- AUC(0-t) [6, 13]: 0.539 ± 0.076 µM·h
- half-life [6, 13]: 7.1 ± 0.36 h
- concentration at 2 h ([7]; 0.168 mg/kg): 331 ± 92 nM
- concentration at 24 h ([7]; 0.536 mg/kg): 457 ± 130 nM
- concentration at 24 h (in vivo): 302 ± 44 nM
- Metabolite Concentrations ([8]; Lower Lung Lobe, 0.168 mg/kg inhaled deposited dose, LOQ for A and C 0.154 nmol/g tissue): BLQ
- Metabolite Concentrations ([8]; Lower Lung Lobe, 0.536 mg/kg inhaled deposited dose, LLOQ for A and C 0.154 nmol/g tissue): BLQ
- Metabolite Concentrations ([8]; Upper Bronchi, 0.168 mg/kg inhaled deposited dose, LOQ for A and C 0.154 nmol/g tissue): BLQ
- Metabolite Concentrations ([8]; Upper Bronchi, 0.536 mg/kg inhaled deposited dose, LLOQ for A and C 0.154 nmol/g tissue): BLQ
- Metabolite Concentrations ([8]; Upper Trachea, 0.168 mg/kg inhaled deposited dose, LOQ for A and C 0.154 nmol/g tissue): BLQ
- Metabolite Concentrations ([8]; Upper Trachea, 0.536 mg/kg inhaled deposited dose, LLOQ for A and C 0.154 nmol/g tissue): BLQ
